Measurements reported in US5589513A, “Pharmaceutical composition and process for the preparation thereof” (Chinoin Gyogyszer es Vegyeszeti Termekek Gyara Rt., priority 1991, dated 1996).
Where a name gives a salt, the structure may show the parent alone. Read-outs that look alike come from different tables or passages of the source.

How the values were obtained:
[1] = tested on: MPP^+ uptake to the striatatal synaptosones; assay: MPP+ uptake to striatal synaptosomes; assay type: biochemical; conditions: for IC50: striatal synaptosomes; for uptake inhibitory potency: potential metabolites
Experimental: (§1) 3.) The potential metabolites of deprenyl and p-fluoro-deprenyl, (methylamphetamine, amphetamine and p-fluoro-methylamphetamine, p-fluoro-amphetamine, respectively) have a significant uptake inhibitory potency; they can prevent in vivo the MPTP neurotoxicity without the development of a high degree of MAO inhibition. The tests were carried out according to the method of Heikilla [Nature, 311, 467-469 (1984)].

[2] = tested on: DA uptake, rat brain synaptosomas, STRIATUM; assay: In vitro DA uptake inhibition on brain synaptosomes (striatum); assay type: biochemical
DSP-4 neurotoxicity [3] = assay: Interaction of deprenyl and p-fluoro-deprenyl metabolites with DSP-4 neurotoxicity; assay type: in vivo, rats; conditions: for prevention of DSP-4 induced neurotoxicity in vivo: dose of 1-5 mg/kg i.p., without development of MAO inhibition
Experimental: The tests were carried out according to the method of Finnegan [Finnegan et al., Eur. J. Pharmacol., 184, 119-126, (1990)].

[4] = tested on: NA uptake, rat brain synaptosomas, HYPOTHALAMUS; assay: In vitro NA uptake inhibition on brain synaptosomes (hypothalamus); assay type: biochemical
[5] = tested on: MPTP induced neuronal damage; conditions: literature; cited from earlier work
MAO-A [6] = assay: Inhibition of MAO activity in liver, 14C-5-HT substrate; assay type: in vivo, domestic pig; conditions: pig; times as for brain; where three numbers are printed, apparently single animals
Experimental: (§2) MAO activity was measured radiometrically according to the methods of Wurtman and Axelrod [Biochem. Pharmacol. 12. 1414-19; (1963)] with a slight modification [K. Magyar in: Monoamine Oxidases and their Selective Inhibition, Ed.: K. Magyar, Pergamon Press, Akademiai Kiado, Budapest, 11-21; (1980)].

DSP-4 neurotoxicity [7] = assay: Inhibition of DSP-4 neurotoxicity after oral deprenyl formulations (hippocampus noradrenaline, survival); assay type: in vivo; conditions: 3 mg/kg p.o.; 50 mg/kg DSP-4 ip.; rats
Experimental: The inhibition of DSP-4 neurotoxicity was measured in rats. For treating rats the schedule of Finnegan was followed [Finnegan et al., Eur. J. Pharmacol., 184, 119-126, (1990)].
Wistar male rats, weighing 170-200 g were used. Animals were housed six to a cage under constant temperature (22° C.), in a room illuminated 12 h per day. Food and water were freely available. Rats were pretreated orally with 3 mg/kg of the combination of example 3 (1 mg/kg "fast" (F)+2 mg/kg "slow" (S)), 1, 2, 4 and 8 hours before DSP-4 treatment (50 mg/kg; intraperitoneally).
Each hippocampus of the rats […].

MAO-A [8] = assay: Inhibition of MAO activity in brain nucleus free homogenates, 14C-5-HT substrate; assay type: in vivo, domestic pig; conditions: pig; p. os 96 h; UG-111 48 h (patch 24 h); UG-167 72 h (patch 48 h); UG-191 96 h (patch 72 h)
Experimental: as §2

MPTP neurotoxicity = MPTP neurotoxicity (dopamine, DOPAC, HVA levels); assay type: in vivo; design: DOPAC: unit not given beside the values; conditions: for prevention of MPTP neurotoxicity in vivo: without a high degree of MAO inhibition
Experimental: as §1

DSP-4 induced toxicity = conditions: literature; cited from earlier work
[9] = Distribution of labelled deprenyl and p-fluoro-deprenyl in brain regions and plasma after oral administration; assay type: in vivo; conditions: rats, deprenyl […], p-fluoro-deprenyl 10 mg/kg
From the text: The simultaneous presence and the equal quantities of the two labels indicate the unchanged molecule (the data relate to the molar concentrations calculated on the basis of the two labels).

[10] = pretreatment 10 mg/kg i.p., DSP-4 50
[11] = 1. treatment MPTP, 2. treatment the substance (MPTP: phys.s.)
[12] = 1. treatment MPTP, 2. treatment the substance (MPTP: phys.s.), % of physiological salt control
[13] = 1. treatment MPTP, 2. treatment the substance (MPTP: phys.s.), time between treatments 30
[14] = pretreatment 1 mg/kg i.p., DSP-4 50
[15] = pretreatment 5 mg/kg i.p., DSP-4 30
[16] = read-out: In vitro uptake inhibition DA STRIATUM
[17] = 1. treatment the substance, 2. treatment MPTP
[18] = 1. treatment the substance, 2. treatment MPTP, % of physiological salt control

Question: For `CC(N)Cc1ccc(F)cc1` (single isomer, unassigned; (+)) [(+)-p-F-amphetamine], which IC50 [1] is on record?
Answer: 0.1 µM

Question: With `CC(N)Cc1ccc(F)cc1` (single isomer, unassigned; (-)) [(-)-p-F-amphetamine] as the compound, how does the IC50 [1] read?
Answer: 0.72 µM

Question: What does the source list for `CNC(C)Cc1ccc(F)cc1` (single isomer, unassigned; (-)) [(-)-p-F-metamphetamine]?
Answer: IC50 ([2]; read-out: In vitro uptake inhibition DA STRIATUM, listed as (-)-p-FLUORO-MA): 300 µM; IC50 [1]: 1.3 µM; Survival % (DSP-4 neurotoxicity [3]; [10]): 0%; IC50 ([4]; listed as (-)-p-FLUORO-MA): 7.5 µM

Question: With `C#CCN(C)[C@H](C)Cc1ccccc1` [(-)-deprenyl, (-)N-(-1-phenyl-isopropyl)-N-methyl-propinylamine-hydrochloride] as the compound, how does the “effect on MPTP induced neuronal damage” value [5] read?
Answer: can be prevented

Question: What about the “inhibition of MAO activity (%) liver 14C-5-HT” value (MAO-A [6]) of the same compound?
Answer: 10.45 ± 6.4%

Question: What about the “prevention of the neurotoxicity of DSP-4” value (DSP-4 neurotoxicity [7]) of the same compound?
Answer: can prevent

Question: And the “inhibition of MAO activity (%) brain 14C-5-HT” value (MAO-A [8])?
Answer: 20.14 ± 6.0%

Question: What does the source list for `CNC(C)Cc1ccc(F)cc1` (single isomer, unassigned; (+)) [(+)-p-F-metamphetamine]?
Answer: IC50 ([2]; read-out: In vitro uptake inhibition DA STRIATUM, listed as (+)-p-FLUORO-MA): 23 µM; IC50 [1]: 1.3 µM; IC50 ([4]; listed as (+)-p-FLUORO-MA): 7.7 µM

Question: With `CN1CC=C(c2ccccc2)CC1` [MPTP, 1-methyl-4-phenyl-1,2,3,6-tetrahydropyridine] as the compound, how does the DOPAC (MPTP neurotoxicity; [11]) read?
Answer: 0.7 ± 0.04

Question: And the “HVA (homovanillic acid)” value (MPTP neurotoxicity; [11])?
Answer: 1.3 ± 0.07

Question: And the DOPAC % (MPTP neurotoxicity; [12])?
Answer: 77%

Question: What about the Dopamine % (MPTP neurotoxicity; [12]) of the same compound?
Answer: 53%

Question: What about the “HVA (homovanillic acid)” value (MPTP neurotoxicity; [12]) of the same compound?
Answer: 79%

Question: What about the Dopamine (MPTP neurotoxicity; [13]) of the same compound?
Answer: 8.0 ± 0.5

Question: For `CN[C@H](C)Cc1ccccc1` [(-)-metamphetamine], which “Na content of hippocampus in % ± S.D.” value (DSP-4 neurotoxicity [3]; [14]) is on record?
Answer: 61 ± 3.5%

Question: What about the Survival % (DSP-4 neurotoxicity [3]; [14]) of the same compound?
Answer: 100%

Question: And the “Na content of hippocampus in % ± S.D.” value (DSP-4 neurotoxicity [3]; [15])?
Answer: 116 ± 2.1%

Question: And the Survival % (DSP-4 neurotoxicity [3]; [15])?
Answer: 63%

Question: What about the Survival % (DSP-4 neurotoxicity [3]; [10]) of the same compound?
Answer: 0%

Question: With `C#CCN(C)[C@@H](C)Cc1ccc(F)cc1` [(+)-p-FLUORO-D] as the compound, how does the IC50 [2, 16] read?
Answer: 16 µM

Question: What about the IC50 [4] of the same compound?
Answer: 6.1 µM

Question: Which “effect on DSP-4 induced toxicity / NA depletion” value (DSP-4 induced toxicity) does the source give for `CNCCCN1c2ccccc2CCc2ccccc21` [desipramine, 10,11-Dihydro-N-methyl-5-H-dibenz(6,7)azepine-5-propanamine] here?
Answer: inhibit the NA-depleting effect of DSP-4

Question: Which “time in which the unchanged compound was absorbed” value [9] does the source give for `C#CCN(C)C(C)Cc1ccc(F)cc1` (stereo not drawn) [p-fluoro-deprenyl] here?
Answer: 15 min

Question: With `OC1(c2ccc(Cl)cc2)c2ccccc2C2=NCCN21` (stereo not drawn) [Mazindol] as the compound, how does the “effect on MPTP induced neuronal damage” value [5] read?
Answer: can be retarded

Question: And the DOPAC (MPTP neurotoxicity; [11])?
Answer: 1.1 ± 0.08

Question: And the DOPAC % (MPTP neurotoxicity; [12])?
Answer: 122%

Question: And the Dopamine % (MPTP neurotoxicity; [12])?
Answer: 98%

Question: And the Dopamine (MPTP neurotoxicity; [13])?
Answer: 14.0 ± 0.8

Question: With `C#CCN(C)C(C)Cc1ccc(F)cc1` (single isomer, unassigned; (-)) [(-)-p-FLUORO-D] as the compound, how does the IC50 [2, 16] read?
Answer: 29 µM

Question: And the IC50 [4]?
Answer: 13 µM

Question: With `CC(N)Cc1ccc(F)cc1` (stereo not drawn) [p-fluoro-amphetamine] as the compound, how does the “prevention of MPTP neurotoxicity in vivo” value (MPTP neurotoxicity) read?
Answer: can prevent

Question: What about the uptake inhibitory potency [1] of the same compound?
Answer: significant

Question: And the “prevention of DSP-4 induced neurotoxicity in vivo” value (DSP-4 neurotoxicity [3])?
Answer: able to prevent

Question: Which DOPAC (MPTP neurotoxicity; [11]) does the source give for `C#CCN(C)Cc1ccccc1` [Pargyline] here?
Answer: 0.5 ± 0.04

Question: What about the “HVA (homovanillic acid)” value (MPTP neurotoxicity; [11]) of the same compound?
Answer: 0.9 ± 0.09

Question: And the DOPAC % (MPTP neurotoxicity; [12])?
Answer: 55%

Question: What about the Dopamine % (MPTP neurotoxicity; [12]) of the same compound?
Answer: 47%

Question: What about the “HVA (homovanillic acid)” value (MPTP neurotoxicity; [12]) of the same compound?
Answer: 64%

Question: And the Dopamine (MPTP neurotoxicity; [13])?
Answer: 7.1 ± 0.6

Question: What about the DOPAC (MPTP neurotoxicity; [17]) of the same compound?
Answer: 1.0 ± 0.06

Question: And the “HVA (homovanillic acid)” value (MPTP neurotoxicity; [17])?
Answer: 1.4 ± 0.06

Question: What about the Dopamine (MPTP neurotoxicity; 1. treatment the substance, 2. treatment MPTP (pretreatment)) of the same compound?
Answer: 13.8 ± 0.5

Question: What about the DOPAC % (MPTP neurotoxicity; [18]) of the same compound?
Answer: 111%

Question: And the Dopamine % (MPTP neurotoxicity; [18])?
Answer: 91%

Question: And the “HVA (homovanillic acid)” value (MPTP neurotoxicity; [18])?
Answer: 100%

Question: With `NC/C(=C/F)CCc1ccc(F)cc1` [MDL 72974A, (E)-4-fluoro-beta-fluoro-ethylene benzene butamine] as the compound, how does the “effect on DSP-4 induced toxicity / NA depletion” value (DSP-4 induced toxicity) read?
Answer: fails to prevent DSP-4 induced toxicity

Question: With `CC(N)Cc1ccccc1` (stereo not drawn) [amphetamine] as the compound, how does the “prevention of MPTP neurotoxicity in vivo” value (MPTP neurotoxicity) read?
Answer: can prevent

Question: And the uptake inhibitory potency [1]?
Answer: significant

Question: What about the “prevention of DSP-4 induced neurotoxicity in vivo” value (DSP-4 neurotoxicity [3]) of the same compound?
Answer: able to prevent
